# How the values were obtained:
# Assay type in all cases: in vivo
# [1] = system: barnyard grass; test: Test Example 1: weedkilling efficacy, preemergent weed treatment in the submerged state; A: barnyard grass; settings: treatment dosage 252 g/ha
# How it was run: (§1)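 Emulsion diluted with water to the specified per-hectare dosage is applied onto flood water (4 cm) over alluvial soil on the sowing day, with barnyard grass, bulrush and pondweed seeded and rice (2.5-leaf) transplanted; plants grow at 25–30 °C and are rated at 3 weeks.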
# [2] = system: bulrush; test: Test Example 1: weedkilling efficacy, preemergent weed treatment in the submerged state; B: bulrush; settings: treatment dosage 252 g/ha
# How it was run: as §1
# [3] = system: oval-leafed pondweed; test: Test Example 1: weedkilling efficacy, preemergent weed treatment in the submerged state; C: oval-leafed pondweed; settings: treatment dosage 252 g/ha
# How it was run: as §1
# [4] = system: transplanted rice; test: Test Example 1: preemergent weed treatment in the submerged state, effect on crop; a: transplanted rice; settings: treatment dosage 252 g/ha
# How it was run: as §1
# [5] = system: barnyard grass; test: Test Example 2: weedkilling efficacy, growth period weed treatment in the submerged state; A: barnyard grass; settings: treatment dosage 252 g/ha
# How it was run: (§2)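 First, alluvial soil in pots is flooded to 4 cm and mixed seed is sown. Next, plants grow in a greenhouse at 25 to 30° C until the 1-2 leaf stage. Then diluted emulsion is applied onto the water surface at the given g/ha rate, and injury is assessed after 3 weeks.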
# [6] = system: bulrush; test: Test Example 2: weedkilling efficacy, growth period weed treatment in the submerged state; B: bulrush; settings: treatment dosage 252 g/ha
# How it was run: as §2
# [7] = system: oval-leafed pondweed; test: Test Example 2: weedkilling efficacy, growth period weed treatment in the submerged state; C: oval-leafed pondweed; settings: treatment dosage 252 g/ha
# How it was run: as §2
# [8] = system: crabgrass; test: Test Example 3: weedkilling efficacy through soil treatment; D: crabgrass; settings: treatment dosage 315 g/ha
# How it was run: (§3)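 Crop and weed responses were judged three weeks after a uniform surface spray of the water-diluted emulsion at the given g/ha rate. Seeds sat beneath about 1.5 cm of sterilized diluvial soil, and boxes stood in a greenhouse at 25 to 30° C.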
# [9] = system: green foxtail; test: Test Example 3: weedkilling efficacy through soil treatment; E: green foxtail; settings: treatment dosage 315 g/ha
# How it was run: as §3
# [10] = system: wild oat; test: Test Example 3: weedkilling efficacy through soil treatment; G: wild oat; settings: treatment dosage 315 g/ha
# How it was run: as §3
# [11] = system: black-grass; test: Test Example 3: weedkilling efficacy through soil treatment; H: black-grass; settings: treatment dosage 315 g/ha
# How it was run: as §3
# [12] = system: Italian ryegrass; test: Test Example 3: weedkilling efficacy through soil treatment; I: Italian ryegrass; settings: treatment dosage 315 g/ha
# How it was run: as §3
# [13] = system: Indian mallow; test: Test Example 3: weedkilling efficacy through soil treatment; K: Indian mallow; settings: treatment dosage 315 g/ha
# How it was run: as §3
# [14] = system: redroot pigweed; test: Test Example 3: weedkilling efficacy through soil treatment; L: redroot pigweed; settings: treatment dosage 315 g/ha
# How it was run: as §3
# [15] = system: fig-leafed goosefoot; test: Test Example 3: weedkilling efficacy through soil treatment; M: fig-leafed goosefoot; settings: treatment dosage 315 g/ha
# How it was run: as §3
# [16] = system: chickweed; test: Test Example 3: weedkilling efficacy through soil treatment; N: chickweed; settings: treatment dosage 315 g/ha
# How it was run: as §3
# [17] = system: birds-eye speedwell; test: Test Example 3: weedkilling efficacy through soil treatment; p: birds-eye speedwell; settings: treatment dosage 315 g/ha
# How it was run: as §3
# [18] = system: directly sown rice; test: Test Example 3: soil treatment, effect on crop; b: directly sown rice; settings: treatment dosage 315 g/ha
# How it was run: as §3
# [19] = system: corn; test: Test Example 3: soil treatment, effect on crop; c: corn; settings: treatment dosage 315 g/ha
# How it was run: as §3
# [20] = system: soybean; test: Test Example 3: soil treatment, effect on crop; d: soybean; settings: treatment dosage 315 g/ha
# How it was run: as §3
# [21] = system: wheat; test: Test Example 3: soil treatment, effect on crop; e: wheat; settings: treatment dosage 315 g/ha
# How it was run: as §3
# [22] = system: beet; test: Test Example 3: soil treatment, effect on crop; f: beet; settings: treatment dosage 315 g/ha
# How it was run: as §3
# [23] = system: crabgrass; test: Test Example 4: weedkilling efficacy by foliar treatment; D: crabgrass; settings: treatment dosage 315 g/ha
# How it was run: (§4)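 Seeds are spot-sown into sterilized diluvial soil and covered with about 1.5 cm of soil. After 14 days' greenhouse growth at 25 to 30° C, plants are sprayed on stems and leaves with diluted emulsion at the stated g/ha rate, then scored at 3 weeks.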
# [24] = system: green foxtail; test: Test Example 4: weedkilling efficacy by foliar treatment; E: green foxtail; settings: treatment dosage 315 g/ha
# How it was run: as §4
# [25] = system: black-grass; test: Test Example 4: weedkilling efficacy by foliar treatment; H: black-grass; settings: treatment dosage 315 g/ha
# How it was run: as §4
# [26] = system: Italian ryegrass; test: Test Example 4: weedkilling efficacy by foliar treatment; I: Italian ryegrass; settings: treatment dosage 315 g/ha
# How it was run: as §4
# [27] = system: Indian mallow; test: Test Example 4: weedkilling efficacy by foliar treatment; K: Indian mallow; settings: treatment dosage 315 g/ha
# How it was run: as §4
# [28] = system: redroot pigweed; test: Test Example 4: weedkilling efficacy by foliar treatment; L: redroot pigweed; settings: treatment dosage 315 g/ha
# How it was run: as §4
# [29] = system: fig-leafed goosefoot; test: Test Example 4: weedkilling efficacy by foliar treatment; M: fig-leafed goosefoot; settings: treatment dosage 315 g/ha
# How it was run: as §4
# [30] = system: chickweed; test: Test Example 4: weedkilling efficacy by foliar treatment; N: chickweed; settings: treatment dosage 315 g/ha
# How it was run: as §4
# [31] = system: catchweed; test: Test Example 4: weedkilling efficacy by foliar treatment; O: catchweed; settings: treatment dosage 315 g/ha
# How it was run: as §4
# [32] = system: birds-eye speedwell; test: Test Example 4: weedkilling efficacy by foliar treatment; p: birds-eye speedwell; settings: treatment dosage 315 g/ha
# How it was run: as §4
# [33] = system: directly sown rice; test: Test Example 4: foliar treatment, effect on crop; b: directly sown rice; settings: treatment dosage 315 g/ha
# How it was run: as §4
# [34] = system: corn; test: Test Example 4: foliar treatment, effect on crop; c: corn; settings: treatment dosage 315 g/ha
# How it was run: as §4
# [35] = system: soybean; test: Test Example 4: foliar treatment, effect on crop; d: soybean; settings: treatment dosage 315 g/ha
# How it was run: as §4
# [36] = system: wheat; test: Test Example 4: foliar treatment, effect on crop; e: wheat; settings: treatment dosage 315 g/ha
# How it was run: as §4
# [37] = system: beet; test: Test Example 4: foliar treatment, effect on crop; f: beet; settings: treatment dosage 315 g/ha
# How it was run: as §4
Structure (SMILES),A (barnyard grass) weedkilling efficacy grade [1],B (bulrush) weedkilling efficacy grade [2],C (oval-leafed pondweed) weedkilling efficacy grade [3],a (transplanted rice) effect on crop grade [4],A (barnyard grass) weedkilling efficacy grade [5],B (bulrush) weedkilling efficacy grade [6],C (oval-leafed pondweed) weedkilling efficacy grade [7],D (crabgrass) weedkilling efficacy grade [8],E (green foxtail) weedkilling efficacy grade [9],G (wild oat) weedkilling efficacy grade [10],H (black-grass) weedkilling efficacy grade [11],I (Italian ryegrass) weedkilling efficacy grade [12],K (Indian mallow) weedkilling efficacy grade [13],L (redroot pigweed) weedkilling efficacy grade [14],M (fig-leafed goosefoot) weedkilling efficacy grade [15],N (chickweed) weedkilling efficacy grade [16],P (birds-eye speedwell) weedkilling efficacy grade [17],b (directly sown rice) effect on crop grade [18],c (corn) effect on crop grade [19],d (soybean) effect on crop grade [20],other results
CC1=C(c2ccsc2)C(=O)N(C(C)(C)C(=O)Nc2cccc(F)n2)CO1 [B-2-04],"5 (weed kill ratio 90% or more, (practically complete withering))","5 (weed kill ratio 90% or more, (practically complete withering))","5 (weed kill ratio 90% or more, (practically complete withering))","3 (weed kill ratio 40% or more, less than 70%)","5 (weed kill ratio 90% or more, (practically complete withering))","5 (weed kill ratio 90% or more, (practically complete withering))","5 (weed kill ratio 90% or more, (practically complete withering))","5 (weed kill ratio 90% or more, (practically complete withering))","5 (weed kill ratio 90% or more, (practically complete withering))","5 (weed kill ratio 90% or more, (practically complete withering))","5 (weed kill ratio 90% or more, (practically complete withering))","5 (weed kill ratio 90% or more, (practically complete withering))","4 (weed kill ratio 70% or more, less than 90%)","4 (weed kill ratio 70% or more, less than 90%)","5 (weed kill ratio 90% or more, (practically complete withering))","5 (weed kill ratio 90% or more, (practically complete withering))","5 (weed kill ratio 90% or more, (practically complete withering))","5 (weed kill ratio 90% or more, (practically complete withering))","1 (weed kill ratio 5% or more, less than 20%)",0 (weed kill ratio 5% or less (practically no effect)),"e (wheat) effect on crop grade [21]: 5 (weed kill ratio 90% or more, (practically complete withering)); f (beet) effect on crop grade [22]: 5 (weed kill ratio 90% or more, (practically complete withering)); D (crabgrass) weedkilling efficacy grade [23]: 5 (weed kill ratio 90% or more, (practically complete withering)); E (green foxtail) weedkilling efficacy grade [24]: 5 (weed kill ratio 90% or more, (practically complete withering)); H (black-grass) weedkilling efficacy grade [25]: 5 (weed kill ratio 90% or more, (practically complete withering)); I (Italian ryegrass) weedkilling efficacy grade [26]: 5 (weed kill ratio 90% or more, (practically complete withering)); K (Indian mallow) weedkilling efficacy grade [27]: 5 (weed kill ratio 90% or more, (practically complete withering)); L (redroot pigweed) weedkilling efficacy grade [28]: 5 (weed kill ratio 90% or more, (practically complete withering)); M (fig-leafed goosefoot) weedkilling efficacy grade [29]: 5 (weed kill ratio 90% or more, (practically complete withering)); N (chickweed) weedkilling efficacy grade [30]: 4 (weed kill ratio 70% or more, less than 90%); O (catchweed) weedkilling efficacy grade [31]: 4 (weed kill ratio 70% or more, less than 90%); P (birds-eye speedwell) weedkilling efficacy grade [32]: 5 (weed kill ratio 90% or more, (practically complete withering)); b (directly sown rice) effect on crop grade [33]: 5 (weed kill ratio 90% or more, (practically complete withering)); c (corn) effect on crop grade [34]: 3 (weed kill ratio 40% or more, less than 70%); d (soybean) effect on crop grade [35]: 4 (weed kill ratio 70% or more, less than 90%); e (wheat) effect on crop grade [36]: 5 (weed kill ratio 90% or more, (practically complete withering)); f (beet) effect on crop grade [37]: 5 (weed kill ratio 90% or more, (practically complete withering))"
CC1=C(c2ccsc2)C(=O)N(C(C)(C)C(=O)Nc2cccc(Br)n2)CO1 [B-2-06],"5 (weed kill ratio 90% or more, (practically complete withering))","5 (weed kill ratio 90% or more, (practically complete withering))","5 (weed kill ratio 90% or more, (practically complete withering))","4 (weed kill ratio 70% or more, less than 90%)","5 (weed kill ratio 90% or more, (practically complete withering))","5 (weed kill ratio 90% or more, (practically complete withering))","5 (weed kill ratio 90% or more, (practically complete withering))","5 (weed kill ratio 90% or more, (practically complete withering))","5 (weed kill ratio 90% or more, (practically complete withering))","5 (weed kill ratio 90% or more, (practically complete withering))","5 (weed kill ratio 90% or more, (practically complete withering))","5 (weed kill ratio 90% or more, (practically complete withering))","4 (weed kill ratio 70% or more, less than 90%)","5 (weed kill ratio 90% or more, (practically complete withering))","5 (weed kill ratio 90% or more, (practically complete withering))","4 (weed kill ratio 70% or more, less than 90%)","5 (weed kill ratio 90% or more, (practically complete withering))","5 (weed kill ratio 90% or more, (practically complete withering))",0 (weed kill ratio 5% or less (practically no effect)),"2 (weed kill ratio 20% or more, less than 40%)","e (wheat) effect on crop grade [21]: 5 (weed kill ratio 90% or more, (practically complete withering)); f (beet) effect on crop grade [22]: 5 (weed kill ratio 90% or more, (practically complete withering)); D (crabgrass) weedkilling efficacy grade [23]: 5 (weed kill ratio 90% or more, (practically complete withering)); E (green foxtail) weedkilling efficacy grade [24]: 5 (weed kill ratio 90% or more, (practically complete withering)); H (black-grass) weedkilling efficacy grade [25]: 5 (weed kill ratio 90% or more, (practically complete withering)); I (Italian ryegrass) weedkilling efficacy grade [26]: 5 (weed kill ratio 90% or more, (practically complete withering)); K (Indian mallow) weedkilling efficacy grade [27]: 3 (weed kill ratio 40% or more, less than 70%); L (redroot pigweed) weedkilling efficacy grade [28]: 5 (weed kill ratio 90% or more, (practically complete withering)); M (fig-leafed goosefoot) weedkilling efficacy grade [29]: 4 (weed kill ratio 70% or more, less than 90%); N (chickweed) weedkilling efficacy grade [30]: 4 (weed kill ratio 70% or more, less than 90%); O (catchweed) weedkilling efficacy grade [31]: 4 (weed kill ratio 70% or more, less than 90%); P (birds-eye speedwell) weedkilling efficacy grade [32]: 5 (weed kill ratio 90% or more, (practically complete withering)); b (directly sown rice) effect on crop grade [33]: 5 (weed kill ratio 90% or more, (practically complete withering)); c (corn) effect on crop grade [34]: 1 (weed kill ratio 5% or more, less than 20%); d (soybean) effect on crop grade [35]: 4 (weed kill ratio 70% or more, less than 90%); e (wheat) effect on crop grade [36]: 4 (weed kill ratio 70% or more, less than 90%); f (beet) effect on crop grade [37]: 4 (weed kill ratio 70% or more, less than 90%)"

# — US9738634B2, “Heterocyclic amide compound and herbicide” (SYNGENTA PARTICIPATIONS AG, priority 2013, dated 2017)
